Laboratory results published in patent US9095578B2, “Adenylyl cyclases as novel targets for the treatment of infection by eukaryotic pathogens” (CORNELL RESEARCH FOUNDATION, INC., priority 2007, dated 2015).

Assays:
[1] = test system: adenylyl cyclase activity from Trypansoma brucei cell lysates; experiment: adenylyl cyclase assay on whole cell lysate of the bloodstream form; format: biochemical, Trypanosoma brucei; conditions: 15 mM MgCl2, 1 mM ATP, pH 7.5, 30° C.; for effect on adenylyl cyclase activity in whole cell lysate: any concentration
Description: The effect of these compounds on lysate activity was tested using whole cell lysate of the bloodstream form. Briefly, 5×10^6 cells were sonicated (on ice) in a lysis buffer consisting of 2 mM Tris-HCl, 15 mM KCl, 1 mM EDTA, 1 mM 2-mercaptoethanol, 100 μM PMSF, and 1 μg/mL aprotinin/leupeptin. Adenylyl cyclase assays were conducted using 20 μL of lysate/assay in the presence of 15 mM MgCl2 and 1 mM ATP in 50 mM Tris-HCl at pH=7.5 at 30° C. KH7.14 and KH7.15 had no effect on activity at any concentration while 100 μM KH7 stimulated AC activity in the whole cell lysate between 1.5-2 fold (see FIG. 2). The observation that KH7 prevents growth of bloodstream form cells in vitro via activation of adenylyl cyclase is consistent with the idea that the cAMP pathway controls the cell cycle.

Candida = experiment: morphological transition essential for pathogenesis, Candida; format: cell-based
Cryptococcus = experiment: morphological transition essential for pathogenesis, Cryptococcus; format: cell-based
human sAC [2] = target: T1, human sAC (Homo sapiens, UniProt Q96PN6); experiment: in vitro adenylyl cyclase assay with purified human sAC protein; format: biochemical; conditions: 100 μM of compound; calcium and bicarbonate stimulated; activation instead of inhibition
T1 construct: made in house
T1 sequence (Q96PN6 1-469 limits assumed): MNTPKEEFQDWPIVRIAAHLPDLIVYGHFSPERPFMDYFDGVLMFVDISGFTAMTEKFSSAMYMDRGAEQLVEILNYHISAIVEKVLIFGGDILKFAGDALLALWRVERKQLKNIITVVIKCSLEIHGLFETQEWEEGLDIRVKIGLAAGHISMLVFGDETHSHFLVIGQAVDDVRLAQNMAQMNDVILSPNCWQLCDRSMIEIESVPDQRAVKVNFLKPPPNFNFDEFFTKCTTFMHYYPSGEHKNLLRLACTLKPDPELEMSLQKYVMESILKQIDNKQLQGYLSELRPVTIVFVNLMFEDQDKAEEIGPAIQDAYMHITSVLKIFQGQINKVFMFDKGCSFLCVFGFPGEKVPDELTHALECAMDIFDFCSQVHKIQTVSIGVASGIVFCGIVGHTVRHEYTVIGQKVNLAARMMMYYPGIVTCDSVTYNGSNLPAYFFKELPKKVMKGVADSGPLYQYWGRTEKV
Description: Purified human sAC protein was used in an in vitro adenylyl cyclase assay. Purification of the protein is described in detail in Litvin et al. 2003. […] This paper also describes the general conditions for a sAC cyclase assay. The specific conditions for the in vitro assay are as follows.
An aliquot of the master mixture was added to the purified human sAC. The assay mixture also included the indicated concentration of KH compound, or an equivalent volume of vehicle (i.e., DMSO) as control. The reaction was started by adding 5 mM ATP (total assay volume=100 μL). […] Stimulated assay conditions involve adding 40 mM bicarbonate and 5 mM CaCl2 to the above master mixture.
Cyclic AMP levels were measured in each sample using the Correlate-EIA Direct Cyclic AMP assay kit from Assay Designs as per manufacturers instructions.

human sAC [3] = target: T1, human sAC; experiment: in vivo cAMP accumulation assay, 4-4 cells (hsACt stably transfected into 293T) + IBMX; format: cell-based; conditions: 4-4, Basal column
Description: 293T cells or 4-4 […] stably transfected into 293T) were grown in 75 cm2 Tissue Culture Flasks until nearly confluent using DMEM (10% FBS, 1% L-Glutamine, 1% Penicillin/Streptomycin). Cells were released from the flask with 3 ml of trypsin followed by addition of 7 ml of DMEM to neutralize the trypsin. Cells were mixed by pipetting up and down with 10 ml serological pipette. To a 3 ml aliquot of the cell mixture, 6 ml of DMEM (prewarmed to 37° C.) was added followed by thorough mixing by picking up the entire 9 mls using a repeat pipettor, and slowly pipetting out against the wall of container. This was repeated this ten times to ensure the mixture in homogenous. 100 μL of cells were then added to each pre-siliconized 1.7 ml Eppindorf tubes (Costar #3207) followed by a 60 min incubation at 37° C. and 5% CO2. This incubation was performed in 20-tube, round, floating racks (VWR #60986-100), which enable a quick transfer of the samples to a water bath, and the ability to mix several samples simultaneously. Following the incubation, 1 μL of the compound in DMSO was added (or just DMSO for controls). The cells were mixed before and after adding the compound, by a brief (and light) vortexing. The compounds were added while the cells were in the 37° C. water bath, followed by a 10 min incubation at 37° C. and 5% CO2. […] The 4-4 cells receive the IBMX to a final concentration of 500 μM IBMX. […]

[4] = test system: endogenous transmembrane adenylyl cyclases; experiment: in vivo cAMP accumulation assay, 293T cells + IBMX and Forskolin; format: cell-based, human; conditions: 293T + FSK column
Description: 293T cells or 4-4 cells (hsACt stably transfected into 293T) were grown in 75 cm2 Tissue Culture Flasks until nearly confluent using DMEM (10% FBS, 1% L-Glutamine, 1% Penicillin/Streptomycin). Cells were released from the flask with 3 ml of trypsin followed by addition of 7 ml of DMEM to neutralize the trypsin. Cells were mixed by pipetting up and down with 10 ml serological pipette. To a 3 ml aliquot of the cell mixture, 6 ml of DMEM (prewarmed to 37° C.) was added followed by thorough mixing by picking up the entire 9 mls using a repeat pipettor, and slowly pipetting out against the wall of container. This was repeated this ten times to ensure the mixture in homogenous. 100 μL of cells were then added to each pre-siliconized 1.7 ml Eppindorf tubes (Costar #3207) followed by a 60 min incubation at 37° C. and 5% CO2. This incubation was performed in 20-tube, round, floating racks (VWR #60986-100), which enable a quick transfer of the samples to a water bath, and the ability to mix several samples simultaneously. Following the incubation, 1 μL of the compound in DMSO was added (or just DMSO for controls). […] Following a 10 min incubation at room temperature, 30 μL of each sample was added to 70 μL of 0.1 N HCl and the cAMP levels were measured using the protocol for the Direct Cyclic AMP Kit (Assay Designs, Inc. # 901-066). […]

CC(Sc1nc2ccccc2[nH]1)C(=O)N/N=C/c1cc(Br)ccc1O (centres unmarked) [KH7]
stimulation of AC activity in the whole cell lysate ([1]; 100 μM): 1.5-2 fold | morphological transition essential for pathogenesis (Candida): blocked | morphological transition essential for pathogenesis (Cryptococcus): blocked

Cc1ccc(Cn2c(SCC(=O)N/N=C/c3ccncc3)nc3ccccc32)cc1 [KH7.142]
Activation, printed in column % Inhibition (100 μM), stimulated human sAC (human sAC [2]): Activation @ 100

O=C(CSc1nc2ccccc2[nH]1)N/N=C/c1ccccn1 [KH7.14]
effect on adenylyl cyclase activity in whole cell lysate [1]: no effect

C/C(=N\NC(=O)CSc1nc2ccccc2[nH]1)c1ccccc1 [KH7.108]
remark on cellular toxicity, 4-4 cells (human sAC [3]): may be cellular toxicity | remark on cellular toxicity, 293T cells [4]: may be cellular toxicity

COc1cc(/C=N/NC(=O)CSc2nc3ccccc3[nH]2)ccc1O [KH7.15]
effect on adenylyl cyclase activity in whole cell lysate [1]: no effect
